We go through three molecules from ChEMBL document CHEMBL1127541, “3,4-Dihydro-3-amino-2H-1-benzopyran derivatives as 5-HT1A receptor ligands and potential anxiolytic agents. 1. Synthesis and structure--activity relationship studies” (J Med Chem, 1994).

Data set [1] addresses 5-hydroxytryptamine receptor 2A (Bos taurus, UniProt Q75Z89). Put plainly: Binding affinity towards 5-hydroxytryptamine 2 receptor in calf frontal cortex. It counts as tissue-based.
A short description of data set [2]: Inhibitory concentration of compound was tested as agonist activity against forskolin activated adenylate cyclase. It is filed as functional.
Data set [3] concerns Mus musculus. The data set can be described thus: The in vivo compartmental activity was evaluated as minimum significant active dose measured by lower lip retraction test. It counts as functional.
Data set [4] deals with T1, 5-hydroxytryptamine receptor 1A (Rattus norvegicus, UniProt P19327).
T1 sequence (P19327 whole entry): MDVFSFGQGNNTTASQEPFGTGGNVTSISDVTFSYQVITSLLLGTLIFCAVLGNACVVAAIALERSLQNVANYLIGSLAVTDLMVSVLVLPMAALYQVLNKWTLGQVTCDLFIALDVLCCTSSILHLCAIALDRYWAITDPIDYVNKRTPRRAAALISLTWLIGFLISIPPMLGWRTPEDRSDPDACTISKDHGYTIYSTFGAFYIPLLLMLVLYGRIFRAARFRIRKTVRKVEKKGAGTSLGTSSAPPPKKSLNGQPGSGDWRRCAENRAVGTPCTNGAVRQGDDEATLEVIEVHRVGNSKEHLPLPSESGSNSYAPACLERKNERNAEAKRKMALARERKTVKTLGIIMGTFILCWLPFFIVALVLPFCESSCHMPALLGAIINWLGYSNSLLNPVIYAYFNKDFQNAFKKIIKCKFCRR
Put plainly: Binding affinity against 5-hydroxytryptamine 1A (5-HT1A) receptor in rat hippocampus membranes. It counts as cell membranes, Membrane.

Another data set has as its target D(1A) dopamine receptor (Bos taurus, UniProt Q95136). The data set can be described thus: Binding affinity towards dopamine receptor D1 in calf striatum. It counts as tissue-based.
The subject of data set [5] is Mus musculus. The data set can be described thus: The in vivo compartmental activity was evaluated as minimum significant active dose measured by Forepaw treading test. It counts as functional.
The target of data set [6] is 5-hydroxytryptamine receptor 1B (Rattus norvegicus, UniProt P28564). Put plainly: Binding affinity for 5-hydroxytryptamine 1B receptor in rat cortex, striatum and globus pallidus. It counts as tissue-based.
Data set [7] deals with Mus musculus. Put plainly: The in vivo compartmental activity was evaluated as minimum significant active dose measured by Dark/light box test. It counts as functional.
Data set [8] deals with Mus musculus. The data set can be described thus: (§1) The in vivo compartmental activity was evaluated as minimum significant active dose measured by punishment test. It is filed as functional.
Data set [9] has as its system Mus musculus. Put plainly: The in vivo compartmental activity was evaluated as minimum significant active dose measured by Drug discrimination test. It is filed as functional.
The species named for data set [10] is Mus musculus. The data set can be described thus: Inhibitory concentration of compound was tested as agonist activity against DRN firing in the dorsal raphe nucleus. It is filed as functional, organism-based.
Data set [11] deals with T2, Alpha-2A adrenergic receptor (Bos taurus, UniProt Q28838).
T2 sequence (Q28838 whole entry): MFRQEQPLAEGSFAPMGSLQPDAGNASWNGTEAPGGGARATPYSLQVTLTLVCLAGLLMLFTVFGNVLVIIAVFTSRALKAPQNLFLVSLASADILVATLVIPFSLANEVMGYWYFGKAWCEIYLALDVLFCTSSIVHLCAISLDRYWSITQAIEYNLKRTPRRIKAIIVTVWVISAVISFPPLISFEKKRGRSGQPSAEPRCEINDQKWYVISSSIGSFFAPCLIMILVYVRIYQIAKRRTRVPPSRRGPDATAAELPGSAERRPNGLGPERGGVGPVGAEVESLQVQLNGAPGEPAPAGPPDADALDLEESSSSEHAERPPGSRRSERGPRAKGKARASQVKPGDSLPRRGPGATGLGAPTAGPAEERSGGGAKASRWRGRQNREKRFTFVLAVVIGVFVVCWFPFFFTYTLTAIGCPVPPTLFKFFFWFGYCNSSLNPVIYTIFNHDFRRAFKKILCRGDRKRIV
The data set can be described thus: Binding affinity against alpha-2 adrenergic receptor in calf frontal cortex. It is filed as tissue-based.

Data set [12] concerns the target T3, Alpha-1A adrenergic receptor (Bos taurus, UniProt P18130).
T3 sequence (P18130 whole entry): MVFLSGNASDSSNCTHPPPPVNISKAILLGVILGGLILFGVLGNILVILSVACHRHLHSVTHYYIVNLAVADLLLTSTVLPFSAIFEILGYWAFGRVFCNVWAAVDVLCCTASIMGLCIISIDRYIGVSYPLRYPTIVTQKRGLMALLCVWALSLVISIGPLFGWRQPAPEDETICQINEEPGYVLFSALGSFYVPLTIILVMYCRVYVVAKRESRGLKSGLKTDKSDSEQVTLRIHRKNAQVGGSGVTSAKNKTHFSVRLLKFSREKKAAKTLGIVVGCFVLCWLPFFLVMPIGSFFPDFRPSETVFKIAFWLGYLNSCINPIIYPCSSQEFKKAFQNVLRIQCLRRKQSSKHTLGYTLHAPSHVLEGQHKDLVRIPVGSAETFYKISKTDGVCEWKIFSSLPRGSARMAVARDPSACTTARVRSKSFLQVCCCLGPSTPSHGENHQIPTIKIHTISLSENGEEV
The data set can be described thus: Binding affinity against alpha-1 adrenergic receptor in calf frontal cortex. It is filed as tissue-based.

A further data set deals with D(2) dopamine receptor (Bos taurus, UniProt P20288). The data set can be described thus: Binding affinity against D2 receptor in calf caudate nucleus.
A short description of data set [13]: Inhibitory concentration of compound was tested as agonist activity against DRN serotonergic neurons firing in the dorsal raphe nucleus. It is filed as functional, tissue-based, Rattus norvegicus.
In data set [14] the test system is Mus musculus. The description is as §1. It counts as ADME, organism-based.

A value given as a limit tells only on which side of the number the result lay.

5-hydroxytryptamine receptor 2A, sequence (Q75Z89 whole entry): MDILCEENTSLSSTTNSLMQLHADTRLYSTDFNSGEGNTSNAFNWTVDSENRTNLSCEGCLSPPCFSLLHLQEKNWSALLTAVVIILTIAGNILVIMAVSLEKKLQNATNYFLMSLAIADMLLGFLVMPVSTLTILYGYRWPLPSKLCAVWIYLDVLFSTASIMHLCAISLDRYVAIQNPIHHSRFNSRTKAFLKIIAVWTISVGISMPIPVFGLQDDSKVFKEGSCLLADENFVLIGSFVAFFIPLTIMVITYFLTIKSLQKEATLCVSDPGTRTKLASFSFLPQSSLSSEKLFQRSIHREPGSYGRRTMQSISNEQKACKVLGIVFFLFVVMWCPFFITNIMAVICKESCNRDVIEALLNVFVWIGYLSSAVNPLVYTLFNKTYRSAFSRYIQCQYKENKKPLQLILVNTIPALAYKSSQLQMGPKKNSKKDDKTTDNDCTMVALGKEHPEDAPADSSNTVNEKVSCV
D(2) dopamine receptor, sequence (P20288 whole entry): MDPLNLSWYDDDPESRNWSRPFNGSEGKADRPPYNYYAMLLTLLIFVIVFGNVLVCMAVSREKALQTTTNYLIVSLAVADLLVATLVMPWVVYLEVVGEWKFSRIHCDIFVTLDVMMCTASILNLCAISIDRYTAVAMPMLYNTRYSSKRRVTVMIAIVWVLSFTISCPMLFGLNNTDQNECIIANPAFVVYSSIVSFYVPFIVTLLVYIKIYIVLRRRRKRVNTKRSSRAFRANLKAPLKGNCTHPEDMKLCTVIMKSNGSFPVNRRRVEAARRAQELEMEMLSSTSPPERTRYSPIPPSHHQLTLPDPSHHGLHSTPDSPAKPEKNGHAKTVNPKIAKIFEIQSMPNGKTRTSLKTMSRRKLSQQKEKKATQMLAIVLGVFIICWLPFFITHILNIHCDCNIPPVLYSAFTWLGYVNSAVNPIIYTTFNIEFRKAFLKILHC
D(1A) dopamine receptor, sequence (Q95136 whole entry): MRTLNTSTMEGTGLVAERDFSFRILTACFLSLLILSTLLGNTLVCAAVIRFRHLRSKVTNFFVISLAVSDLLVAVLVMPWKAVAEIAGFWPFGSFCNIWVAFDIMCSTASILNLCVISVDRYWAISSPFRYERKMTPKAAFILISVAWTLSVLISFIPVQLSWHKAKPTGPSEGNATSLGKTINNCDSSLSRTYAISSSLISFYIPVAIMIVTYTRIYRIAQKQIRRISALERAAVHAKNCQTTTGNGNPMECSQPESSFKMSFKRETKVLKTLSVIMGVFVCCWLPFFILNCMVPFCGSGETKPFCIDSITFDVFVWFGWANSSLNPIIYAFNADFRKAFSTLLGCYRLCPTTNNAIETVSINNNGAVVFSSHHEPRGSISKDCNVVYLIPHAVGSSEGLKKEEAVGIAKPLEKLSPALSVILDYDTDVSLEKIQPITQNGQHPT
5-hydroxytryptamine receptor 1B, sequence (P28564 whole entry): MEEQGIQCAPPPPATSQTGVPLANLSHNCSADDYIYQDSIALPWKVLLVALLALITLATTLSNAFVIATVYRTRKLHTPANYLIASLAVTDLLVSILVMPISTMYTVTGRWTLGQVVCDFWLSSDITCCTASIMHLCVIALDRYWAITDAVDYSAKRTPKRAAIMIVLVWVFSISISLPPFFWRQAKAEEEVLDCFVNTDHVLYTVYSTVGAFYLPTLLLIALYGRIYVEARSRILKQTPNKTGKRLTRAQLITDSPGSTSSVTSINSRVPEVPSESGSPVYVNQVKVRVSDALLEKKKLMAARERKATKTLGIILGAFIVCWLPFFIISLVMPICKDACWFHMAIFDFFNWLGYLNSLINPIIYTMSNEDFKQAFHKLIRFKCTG

Broadly, the IC50 is the concentration at which inhibition is half-maximal. High values mean a need for much substance, low ones inhibition by little substance. As for `CCCN(CCCCN1C(=O)CC2(CCCC2)CC1=O)C1COc2cccc(OC)c2C1.O=C(O)C(=O)O` (single isomer, unassigned; (+)), the IC50 was 3 µM in [1]; 10.2 nM in data set [2]; 0.3 nM in data set [4]; 40 µM on D(1A) dopamine receptor; 10 µM in data set [6]; approximately 6 nM in the data set listed under Mus musculus [10]. Also, the IC50 stood at 20 nM in [11], 40 µM in data set [12] and 3000 nM on D(2) dopamine receptor. Besides, the LLR msad with Mus musculus [3] was 4 mg/kg. Also, in the data set on Mus musculus [5], the FPT msad worked out at 8 mg/kg. The molecule further registered a DLBT in the data set with Mus musculus [7] of 1 mg/kg. In the data set with Mus musculus [8], this molecule showed a Punishment test msad of 0.03 mg/kg. The molecule also gave a DDT msad in the data set on Mus musculus [9] of 0.1 mg/kg.
For the molecule `CCCN(CCCCN1C(=O)CC2(CCCC2)CC1=O)C1COc2cccc(OC)c2C1.O=C(O)C(=O)O` (single isomer, unassigned; (-)), the IC50 was 5 µM in [1]; 248 nM in data set [2]; 2 nM in data set [4]; 20 µM at D(1A) dopamine receptor; 6 µM in data set [6]; approximately 130 nM in the data set listed under Mus musculus [10]. Also, the IC50 stood at 20 nM in [11], 20 µM in data set [12] and 10 nM at D(2) dopamine receptor. Besides, the LLR msad in the data set on Mus musculus [3] was 8 mg/kg. This molecule yielded an FPT msad in the data set on Mus musculus [5] of 32 mg/kg. The same molecule had a DLBT in the data set with Mus musculus [7] of more than 2 mg/kg. In the data set with Mus musculus [8], the Punishment test msad was determined as 1 mg/kg. In addition, the DDT msad in the data set with Mus musculus [9] was 3 mg/kg.
For the molecule `CCCN(CCC)C1CCc2cccc(O)c2C1` (stereo unspecified) [8-OH-DPAT], the 50% inhibitory concentration (IC50) in [1] is 49 µM; in data set [2] it was approximately 8 nM; at D(1A) dopamine receptor, more than 1000 µM; in [13] it was approximately 5 nM; in [11], 1000 nM; in [12], 30 µM. Further, the IC50 at D(2) dopamine receptor is 800 nM. This molecule showed a Punishment test msad in the data set with Mus musculus [14] of 0.1 mg/kg.
